Laboratory results published in patent US8658648B2, “Modified chloroquines with single ring moiety or fused ring moiety” (DesignMedix, Inc., priority 2008, dated 2014).
Read-outs that look alike come from different tables or passages of the source.

Assays:
[1] = test system: D6 (CQ^S) P. falciparum strain; assay: In vitro fluorescence (Sybr Green I) assay for IC50 against D6 strain; format: cell-based; details: Plasmodium falciparum, read-out: IC50-D6
Source text: (§1) This method employs fluorescent detection of the level of parasitemia in cultured red blood cells and can be automated for high-throughput screening of antimalarial RCQs. This exemplary method allows the inhibitory agent (such as a MCQ) to be in contact with the parasite for an entire developmental cycle without purine starvation, which is in contrast to the traditional ^3H-hypoxanthine method (Desjardins et al. 1979. Antimicrob. Agents Chemother. 16(6):710-718, which is incorporated herein by reference in its entirety). Briefly, to perform the Smilkstein et al. method, an initial parasitemia of approximately 0.2% is attained by adding uninfected red blood cells (RBCs) to a stock culture of Plasmodium-infected RBCs. […] After a period of incubation (such as about 72 hours), a sufficient amount (e.g., 100 μL) of a fluorescent DNA binding dye-detergent mixture (e.g., Sybr Green I dye-detergent mixture) to lyse cells and bind to DNA is added to the reactions. Because uninfected RBCs have no DNA, only parasite DNA (in infected RBCs) is available for binding to the fluorescent dye (e.g., Sybr Green I). Samples are then incubated in the dark for a period of time (e.g., one hour), followed by measurement of levels of fluorescence. For Sybr Green 1, excitation and emission wavelength are 485 and 530 nm, respectively. Fluorescence readings, which represent the amount of parasite DNA in the sample, can be plotted against the Log [drug] and fit to a curve by nonlinear regression to obtain the IC50 value for the tested compound.
(§2) An in vitro fluorescence assay for determining IC50 of antimalarial drugs was performed as previously described by Smilkstein et al. (2004. Antimicrob. Agents Chemother. 48(5):1803-1806). This procedure can be automated for high-throughput screening of the antimalarial activities of RCQs described herein. This method also allows the tested agent (e.g., a MCQ) to be in contact with the parasite for an entire developmental cycle without purine starvation (which occurs with the commonly used ^3H-hypoxanthine method; see, e.g., Desjardins et al. 1979. Antimicrob. Agents Chemother. 16, (6):710-7188).
(§3) Briefly, an initial parasitemia of approximately 0.2% was attained by addition of uninfected red blood cells to a stock culture of cells infected with Dd2 (CQ^R), 7G8 (CQ^R), or D6 (CQ^S) P. falciparum strains. A 10 mM solution of a test compound (in DMSO) was prepared. The test compound (at a final concentration from 10^−11 to 10^−4 M) and infected red blood cells (at a final concentration of 2% (v/v)) were mixed in 100 μL samples in individual wells of a 96-well plate. Each sample was prepared in triplicate. A triplicate set of reactions containing CQ (instead of the test compound) was included as a control. After a 72 hour incubation period, Sybr Green I dye-detergent mixture (100 μL) was added to each reaction. The samples were further incubated for an hour in the dark, and then placed in a 96-well fluorescence plate reader (Gemini-EM, […]) and analyzed with excitation and emission wavelength bands at 485 and 530 nm, respectively. Fluorescence readings were plotted against the Log [drug], and curve fitting performed by nonlinear regression to find the IC50 value.

[2] = test system: Dd2 (CQ^R) P. falciparum strain; assay: In vitro fluorescence (Sybr Green I) assay for IC50 against Dd2 strain; format: cell-based; details: Plasmodium falciparum, read-out: IC50-Dd2
Source text: as §1, §2, §3

[3] = test system: 7G8 (CQ^R) P. falciparum strain; assay: In vitro fluorescence (Sybr Green I) assay for IC50 against 7G8 strain; format: cell-based; details: Plasmodium falciparum, read-out: IC50-7G8
Source text: as §1, §2, §3

[4] = test system: mitogen-induced marine spleen lymphocytes; format: cell-based; details: LC50; mouse spleen lymphocytes, 72 hours incubation, then resazurin 24 hours
Method: Mouse spleen lymphocytes were isolated from C57B1/6J mice by teasing tissues on a metallic sieve screen. […] Two hundred (200) μl isolated cells were then seeded in separate wells of a 96-well flat-bottom tissue culture plate at a density of 2×10^5 cells per well. […] After 72 hours incubation in a humidified atmosphere at 37° C. and 5% CO2, a solution of resazurin PBS was added to a final concentration 10 μM, and the plates were returned to the incubator for another 24 hours. Resazurin is a substrate which changes color in response to metabolic activity (such as that found in living cells). […] LC50 values were determined from plots of florescence versus drug concentration using non-linear regression by Prism software.

P. berghei = assay: In vivo activity in mice against P. berghei (survival); details: second 4× oral dose experiment, dosage equimolar to 30 mg/kg CQ; monitored up to 30 days
P. falciparum strain D6 = details: cited from earlier work; further: key: S = sensitive; R = resistant; S/R = intermediate level of resistance
[5] = test system: P. falciparum strain FCR3; details: cited from earlier work; further: key: S = sensitive; R = resistant; S/R = intermediate level of resistance
P. falciparum strain W2 = details: cited from earlier work; further: key: S = sensitive; R = resistant; S/R = intermediate level of resistance
P. falciparum strain Dd2 = details: cited from earlier work; further: key: S = sensitive; R = resistant; S/R = intermediate level of resistance
P. falciparum strain 3D7 = details: cited from earlier work; further: key: S = sensitive; R = resistant; S/R = intermediate level of resistance
[6] = test system: P. falciparum strain TM91C235; details: cited from earlier work; further: key: S = sensitive; R = resistant; S/R = intermediate level of resistance
P. falciparum strain 7G8 = details: cited from earlier work; further: key: S = sensitive; R = resistant; S/R = intermediate level of resistance

Row | Compound | IC50 ([1]; Erythrocyte, D6 (CQ^S) strain in infected red blood cells, 72 hour incubation) | IC50 ([2]; Erythrocyte, Dd2 (CQ^R) strain in infected red blood cells, 72 hour incubation) | IC50 ([3]; Erythrocyte, 7G8 (CQ^R) strain in infected red blood cells, 72 hour incubation) | Cytotoxicity [4] | average survival for the mice (P. berghei) | IC50 ([1]; D6, Erythrocyte, 72 h) | IC50 ([2]; DD2, Erythrocyte, 72 h) | IC50 ([3]; 7G8, Erythrocyte, 72 h) | Drug susceptibility of P. falciparum strain D6 (P. falciparum strain D6) | Drug susceptibility of P. falciparum strain FCR3 [5] | Drug susceptibility of P. falciparum strain W2 (P. falciparum strain W2) | Drug susceptibility of P. falciparum strain Dd2 (P. falciparum strain Dd2) | Drug susceptibility of P. falciparum strain 3D7 (P. falciparum strain 3D7) | Drug susceptibility of P. falciparum strain TM91C235 [6] | Drug susceptibility of P. falciparum strain 7G8 (P. falciparum strain 7G8)
1 | Clc1ccc2c(NCCCN3CCN(c4ccccn4)CC3)ccnc2c1 [7-chloro-N-(3-(4-(pyridin-2-yl)piperazin-1-yl)propyl)quinolin-4-amine] | 2.7 nM | 4.8 nM | 9.5 nM | 8.6 µM | 20 days |  |  |  |  |  |  |  |  |  | 
2 | CCN(CC)CCCC(C)Nc1ccnc2cc(Cl)ccc12 (stereo not drawn) [Chloroquine, chloroquine] |  |  |  |  |  | 6.9 nM | 102 nM | 106 nM | S | R | R | R | S | R | R
